Measured values: patent US11753445B2, “Therapeutic peptides” (COHBAR, INC., priority 2016, dated 2023)
Ends that are not written are not given here. Peptide text beside a SMILES is read from it. * marks the point of attachment. Biotin = O=C1N[C@H]2[C@H](CS[C@H]2CCCCC(=O)*)N1

Experiments:
3T3-L1 Adipocytes [1] = assay: Free fatty acid levels in cultured mouse 3T3-L1 adipocytes, isoproterenol stimulated (Example 17); type: cell-based; settings: isoproterenol 1 nM
Experimental: Mouse 3T3-L1 cells were seeded at a density between 1,000-20,000 cells per well on 96-well, 48-well, or 24-well plates in Pre-adipocyte Medium (Zen-Bio, Durham, N.C.) and grown to confluence at 37° C. in a humidified atmosphere of 5% CO2/95% air. Two days after confluence, cells were placed in Adipocyte Differentiation Medium (Zen-Bio, Durham, N.C.) and cultured for three additional days at 37° C. in a humidified atmosphere of 5% CO2/95% air. The culture media was then replaced with Adipocyte Maintenance Medium (Zen-Bio) and the cells were maintained for an additional 9-14 days at 37° C. in a humidified atmosphere of 5% CO2/95% air with partial medium replacement every other day. Following 12-17 days of differentiation, test peptides were added at a final concentration of 25-50 μM and incubated for 18-20 hours in Adipocyte Maintenance Medium at 37° C. in a humidified atmosphere of 5% CO2/95%. After the media incubation, media was removed and exchanged with Assay Buffer (Zen-Bio) containing isoproterenol (1 nM) (added to all samples except untreated controls) and the test peptides. Cells were incubated for a further 3 hours at 37° C. in a humidified atmosphere of 5% CO2/95%. Free fatty acid concentrations in the media were determined using a Free Fatty Acid Assay Kit (Zen-Bio) according to the manufacturer's instructions using a plate reader (540 nm).
Absorbance values were corrected for untreated background and expressed relative to isoproterenol treated cells. Treatment with isoproterenol (1 nM) alone was used as the free fatty acid level stimulatory control. The relative standard deviation of the isoproterenol control was <10%. […] Free fatty acid levels for insulin (100 nM) treatment were <5% of the isoproterenol control value.

3T3-L1 Adipocytes [2] = assay: Free fatty acid levels in cultured mouse 3T3-L1 adipocytes, isoproterenol stimulated (Example 2); type: cell-based; settings: test peptides 25 μM; isoproterenol 1 nM
Method in brief: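 Release of free fatty acids, read at 540 nm, was stimulated with 1 nM isoproterenol for 3 h in mouse 3T3-L1 adipocytes (12–17 days of differentiation). Cells were pre-exposed to 25 μM peptide for 18–20 h plus 1 h, with peptide kept in during stimulation. Values are background-subtracted and normalised to isoproterenol alone.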

Human Primary Adipocytes [3] = assay: Free fatty acid levels in cultured human primary adipocytes, isoproterenol stimulated (Example 4); type: cell-based; settings: test peptides 25 μM; isoproterenol 1 nM
Experimental: Human primary adipocytes were seeded at 5,000-100,000 cells per well on 96-well, 48-well, or 24-well plates in Pre-adipocyte Medium (Zen-Bio, Durham, N.C.) and grown to confluence at 37° C. in a humidified atmosphere of 5% CO2/95% air. Two days after confluence, cells were placed in Adipocyte Differentiation Medium (Zen-Bio, Durham, N.C.) and cultured for three additional days at 37° C. in a humidified atmosphere of 5% CO2/95% air. The culture media was then replaced with Adipocyte Maintenance Medium (Zen-Bio) and the cells were maintained for an additional 11-21 days at 37° C. in a humidified atmosphere of 5% CO2/95% air with partial medium replacement every other day. Following 14-24 days of differentiation, test peptides were added at a final concentration of 25 μM and incubated for 18-20 hours in Adipocyte Maintenance Medium at 37° C. in a humidified atmosphere of 5% CO2/95%. After 18-20 hours, the media was exchanged with fresh Adipocyte Maintenance Medium containing test peptides and incubated for 1 h at 37° C. in a humidified atmosphere of 5% CO2/95%. After 1 h media was exchanged with Assay Buffer (Zen-Bio) containing isoproterenol (1 nM) (added to all samples except untreated controls) and test peptides. Cells were incubated for a further 3 hours at 37° C. in a humidified atmosphere of 5% CO2/95%. Free fatty acid concentrations in the media were determined using a Free Fatty Acid Assay Kit (Zen-Bio) according to the manufacturer's instructions using a plate reader (540 nm). Absorbance values were corrected for untreated background and expressed relative to isoproterenol treated cells. Treatment with isoproterenol (1 nM) alone was used as the free fatty acid level stimulatory control. The relative standard deviation of the isoproterenol control was <14%. […] Free fatty acid levels for insulin (100 nM) treatment were <5% of the isoproterenol control value.

Human Primary Adipocytes [4] = assay: Free fatty acid levels in cultured human primary adipocytes, forskolin stimulated (Example 5); type: cell-based; settings: test peptides 25 μM; forskolin 1 μM
Experimental: Human primary adipocytes were seeded at 5,000-100,000 cells per well on 96-well, 48-well, or 24-well plate in Pre-adipocyte Medium (Zen-Bio, Durham, N.C.) and grown to confluence at 37° C. in a humidified atmosphere of 5% CO2/95% air. Two days after confluence, cells were placed in Adipocyte Differentiation Medium (Zen-Bio, Durham, N.C.) and cultured for three additional days at 37° C. in a humidified atmosphere of 5% CO2/95% air. The culture media was then replaced with Adipocyte Maintenance Medium (Zen-Bio) and the cells were maintained for an additional 11-21 days at 37° C. in a humidified atmosphere of 5% CO2/95% air with partial medium replacement every other day. Following 14-24 days of differentiation, test peptides were added at a final concentration of 25 μM and incubated for 18-20 hours in Adipocyte Maintenance Medium at 37° C. in a humidified atmosphere of 5% CO2/95%. After 18-20 hours, the media was exchanged with fresh Adipocyte Maintenance Medium containing test peptides and incubated for 1 h at 37° C. in a humidified atmosphere of 5% CO2/95%. After 1 h media was exchanged with Assay Buffer (Zen-Bio) containing forskolin (1 μM) (added to all samples except untreated controls) and test peptides. Cells were incubated for a further 3 hours at 37° C. in a humidified atmosphere of 5% CO2/95%. Free fatty acid concentrations in the media were determined using a Free Fatty Acid Assay Kit (Zen-Bio) according to the manufacturer's instructions using a plate reader (540 nm). Absorbance values were corrected for untreated background and expressed relative to forskolin treated cells. Treatment with forskolin (1 μM) alone was used as the free fatty acid level stimulatory control. The relative standard deviation of the forskolin control was <20%. […] Free fatty acid levels for insulin (100 nM) treatment were <8% of the forskolin control value.

[5] = Stability in mouse plasma, peptides 100 uM (Example 14); type: in vitro ADME; settings: mouse plasma 37° C., peptide 100 uM
Experimental: Peptides (100 uM) were incubated in pooled mouse plasma at 37° C. and samples were removed and immediately analyzed for the concentration of intact peptide by LC/MS/MS over the course of 3 hours. The percent of peptide remaining in plasma at each time point was calculated relative to the initial peak area (Table 12).

Row | Molecule | Free Fatty Acid Levels in 3T3-L1 Adipocytes Expressed as a Percent of Isoproterenol Control: Percent of Control Value (3T3-L1 Adipocytes [1]; Peptide Concentration 25 μM) | Free Fatty Acid Levels in 3T3-L1 Adipocytes Expressed as a Percent of Isoproterenol Control: Percent of Control Value (3T3-L1 Adipocytes [1]; Peptide Concentration 50 μM) | further results
1 | 359 (RWQEMNYIFYPRK-biotin; not fully specified (residue 13); printed as RWQEMNYIFYPRK-(Biotin)) [compound 359] | 34.8% |  | 
2 | 367 (Biotin-KRWQEMNYIFYPR) [compound 367] |  | 59.0% | 
3 | 368 (PEG600-KNYIFYPR) [compound 368] |  | 70.0% | 
4 | 369 (PEG600-KEMNYIFYPR) [compound 369] |  | 87.5% | 
5 | 370 (PEG600-KWQEMNYIFYPR) [compound 370] |  | 129.0% | 
6 | 371 (PEG600-KRWQEMNYIFYP) [compound 371] |  | 118.0% | 
7 | 372 (PEG600-KWQEMNYIFYP) [compound 372] |  | 168.0% | 
8 | CC[C@H](C)[C@H](NC(=O)[C@H](Cc1ccc(O)cc1)NC(=O)[C@H](CC(N)=O)NC(=O)[C@H](CCSC)NC(=O)[C@H](CCC(=O)O)NC(=O)[C@H](CCC(N)=O)NC(=O)[C@H](Cc1c[nH]c2ccccc12)NC(=O)[C@@H](N)CCCNC(=N)N)C(=O)N[C@@H](Cc1ccccc1)C(=O)N[C@@H](Cc1ccc(O)cc1)C(=O)N1CCC[C@H]1C(=O)N[C@@H](CCCNC(=N)N)C(=O)N[C@H](C)C(=O)O [compound 355] (HELM PEPTIDE1{R.W.Q.E.M.N.Y.I.F.Y.P.R.[dA]}$$$$V2.0) | 97.8% |  | 
9 | CC[C@H](C)[C@H](NC(=O)[C@H](Cc1ccc(O)cc1)NC(=O)[C@H](CC(N)=O)NC(=O)[C@H](CCSC)NC(=O)[C@H](CCC(=O)O)NC(=O)[C@H](CCC(N)=O)NC(=O)[C@H](Cc1c[nH]c2ccccc12)NC(=O)[C@@H](N)CCCNC(=N)N)C(=O)N[C@@H](Cc1ccccc1)C(=O)N[C@@H](Cc1ccc(O)cc1)C(=O)N1CCC[C@H]1C(=O)N[C@@H](CCCNC(=N)N)C(=O)N[C@@H](CCCNC(=N)N)C(=O)N[C@H](C)C(=O)O [compound 356] (HELM PEPTIDE1{R.W.Q.E.M.N.Y.I.F.Y.P.R.R.[dA]}$$$$V2.0) | 100.6% |  | 
10 | Ac-YIFYPRKLR-NH2 [compound 58] |  |  | Free Fatty Acid Levels in 3T3-L1 Adipocytes Expressed as a Percent of Isoproterenol Control: Percent of Control Value (3T3-L1 Adipocytes [2]): 97.3%; Free Fatty Acid Levels in Human Primary Adipocytes Expressed as a Percent of Isoproterenol Control: Percent of Control Value (Human Primary Adipocytes [3]): 164%; Free Fatty Acid Levels in Human Primary Adipocytes Expressed as a Percent of Forskolin Control: Percent of Control Value (Human Primary Adipocytes [4]): 134%
11 | H-EMNYIFYP-OH [compound 362] | 92.5% |  | 
12 | H-IFYPR-OH [compound 360] | 94.6% |  | 
13 | H-MRWQEMGYIFYPRK(Ac)LR-OH [compound 69] |  |  | Free Fatty Acid Levels in 3T3-L1 Adipocytes Expressed as a Percent of Isoproterenol Control: Percent of Control Value (3T3-L1 Adipocytes [2]): 61.3%; Free Fatty Acid Levels in Human Primary Adipocytes Expressed as a Percent of Isoproterenol Control: Percent of Control Value (Human Primary Adipocytes [3]): 53.0%; Free Fatty Acid Levels in Human Primary Adipocytes Expressed as a Percent of Forskolin Control: Percent of Control Value (Human Primary Adipocytes [4]): 119%; % Remaining at Each Time Point: 0 min ([5]; 0 min): 100%; remaining at 0.25 h, 100 uM ([5]; pooled mouse plasma, 15 min, read-out: % Remaining at Each Time Point: 15 min): 33.1%; remaining at 0.5 h, 100 uM ([5]; pooled mouse plasma, 30 min, read-out: % Remaining at Each Time Point: 30 min): 37.7%; remaining at 1 h, 100 uM ([5]; pooled mouse plasma, 60 min, read-out: % Remaining at Each Time Point: 60 min): 19.3%; remaining at 2 h, 100 uM ([5]; pooled mouse plasma, 120 min, read-out: % Remaining at Each Time Point: 120 min): 5.96%; remaining at 3 h, 100 uM ([5]; pooled mouse plasma, 180 min, read-out: % Remaining at Each Time Point: 180 min): 2.11%
14 | H-QEMNYIFYP-OH [compound 363] | 131.5% |  | 
15 | H-QEMNYIFYPR-OH [compound 366] | 82.0% |  | 
16 | H-RWQEM-OH [compound 351] | 100.1% |  | 
17 | H-RWQEMNYIFYPR-NH2 [compound 354] | 92.3% |  | 
18 | H-WQEMNYIFY-OH [compound 365] | 85.6% |  | 
19 | H-YIFYPR-OH [compound 296] | 85.0% |  | 
